Earlier results, collected in US20030082231A1, “Coating for orally administered compositions” (priority 2001, published 2003).

Tested on: sister chromatid exchanges (SCE) damage induced by benzo(a)pyrene

chlorophyllin
genotoxic inhibition (frequency of sister chromatid exchanges) (SCE damage induced by benzo(a)pyrene, in vivo): about 80%
cell proliferation kinetics (CPK) (chlorophyllin plus benzo(a)pyrene): inhibition of the cell proliferation kinetics
